# Measured values: patent US20230044633A1, “OPTICAL BASED METHODS FOR DETERMINING ANTIMICROBIAL DOSING REGIMENS” (University of Houston System, priority 2019, published 2023)
# Experiments:
# [1] = tested on: Acinetobacter baumannii (AB), ATCC BAA747; experiment: Susceptibility (MIC); assay type: cell-based; conditions: ATCCBAA747, wild type AB ATCC BAA747, previously found
# Method: Microorganism. A laboratory reference wild type Acinetobacter baumannii (AB), ATCC BAA747, was utilized in the study. The bacteria were stored at −70° C. in Protect® vials. Before the experiment, the bacteria were subcultured at least twice on 5% blood agar plates for 24 hours at 35° C. and fresh colonies were used.
# [2] = tested on: A. baumannii 1261 (clinical isolate); experiment: Clinical isolate exposed to antibiotic concentration combinations in 4×4 array, tracked over 24 h on 216Dx; assay type: cell-based, Acinetobacter baumannii; conditions: clinical isolate of A. baumannii (multidrug resistant)
# Method: FIG. 3. A. baumannii 1261 was exposed to 16 different concentration combinations of levofloxacin (L) and amikacin (A). Each sequence of points represents the time course of the bacterial population (baseline inoculum approximately 2-5×10^5 CFU/ml) exposed to one levofloxacin/amikacin concentration combination (e.g., levofloxacin 20 mg/l+amikacin 30 mg/ is shown in hollow squares). Bacteria exposed to drugs with no activity produce profiles that superimpose on those from placebo controls; antimicrobial activity manifests as a delay or absence of growth.
# Ineffective antibiotics may have acceptable activity when combined. A clinical isolate of A. baumannii was exposed to different antibiotic concentration combinations in a 4×4 array, and the bacterial burden was tracked over 24 h using the prototype technical platform 216Dx. While the isolate is resistant to levofloxacin, amikacin and cefepime (multidrug resistant), bacterial growth was delayed in selected combinations (FIG. 3) and the profiles were reasonably captured by the mathematical modeling framework (1) shown above (FIG. 1, right).
SMILES,MIC [1],susceptibility phenotype of the isolate [2]
"C[C@H]1COc2c(N3CCN(C)CC3)c(F)cc3c(=O)c(C(=O)O)cn1c23 [LVX, Levofloxacin]",0.25 µg/mL,–
NCC[C@H](O)C(=O)N[C@@H]1C[C@H](N)[C@@H](O[C@H]2O[C@H](CN)[C@@H](O)[C@H](O)[C@H]2O)[C@H](O)[C@H]1O[C@H]1O[C@H](CO)[C@@H](O)[C@H](N)[C@H]1O [amikacin],–,resistant
CO/N=C(\C(=O)N[C@@H]1C(=O)N2C(C(=O)[O-])=C(C[N+]3(C)CCCC3)CS[C@H]12)c1csc(N)n1 [cefepime],–,resistant
